A word on the inhibition: it is the change of the read-out against control, counted positive when it falls.

For two compounds, inhibition and residual activity results are on record in ChEMBL document CHEMBL4507263, “Data for DCP probe BAY-474” (2021).

In assay [1] the target is Sigma non-opioid intracellular receptor 1 (Homo sapiens) (UniProt Q99720). Nature of the assay: Inhibition of Sigma 1 at 10 µM in the Eurofins-Panlabs radioligand binding assay (Eurofins_assay_278110). More on the design: ligand concentration 8 nM. The conditions noted are these: Compound concentration 10.0 uM.
Assay [2] addresses Ephrin type-A receptor 1 (Homo sapiens) (UniProt P21709). Nature of the assay: EphA1 (h) Millipore kinase activity assay. To be noted: Compound concentration 1.0 uM.
The species entered for another assay is Rattus norvegicus. The assay can be described thus: Inhibition of Imidazoline I2, Central at 10 µM in the Eurofins-Panlabs radioligand binding assay (Eurofins_assay_241000). The conditions noted are these: Compound concentration 10.0 uM. Also noted: ligand concentration 2 nM.
For assay [3], the target named is Ephrin type-B receptor 3 (Homo sapiens) (UniProt P54753). Nature of the assay: EphB3 (h) Millipore kinase activity assay. The conditions noted are these: Compound concentration 1.0 uM.
Assay [4] concerns the target Voltage-dependent N-type calcium channel subunit alpha-1B (Homo sapiens) (UniProt Q00975). Nature of the assay: Inhibition of Calcium Channel N-Type at 10 µM in the Eurofins-Panlabs radioligand binding assay (Eurofins_assay_216000). To be noted: Rattus norvegicus; Compound concentration 10.0 uM.
Assay [5] deals with Death-associated protein kinase 1 (Homo sapiens) (UniProt P53355). The assay can be described thus: DAPK1 (h) Millipore kinase activity assay. To be noted: Compound concentration 1.0 uM.
Assay [6] concerns the target Serine/threonine-protein kinase MRCK alpha (Homo sapiens) (UniProt Q5VT25). Nature of the assay: MRCKalpha (h) Millipore kinase activity assay. The conditions noted are these: Compound concentration 1.0 uM.
Assay [7] deals with Mitogen-activated protein kinase 14 (Homo sapiens) (UniProt Q16539). The assay can be described thus: SAPK2a (h) Millipore kinase activity assay. The conditions noted are these: Compound concentration 1.0 uM.
Assay [8] addresses Serine/threonine-protein kinase haspin (Homo sapiens) (UniProt Q8TF76). The assay can be described thus: Haspin (h) Millipore kinase activity assay. The conditions noted are these: Compound concentration 1.0 uM.
In assay [9] the target is Endothelin-1 receptor (Homo sapiens) (UniProt P25101). The conditions noted are these: Compound concentration 10.0 uM.
Assay [10] concerns the target Dual specificity mitogen-activated protein kinase kinase 4 (Mus musculus) (UniProt P47809). The assay can be described thus: MKK4 (m) Millipore kinase activity assay. The conditions noted are these: Compound concentration 1.0 uM.
In assay [11] the target is Adenosine receptor A2a (Homo sapiens) (UniProt P29274). The conditions noted are these: Compound concentration 10.0 uM.
In assay [12] the target is Dual specificity tyrosine-phosphorylation-regulated kinase 2 (Homo sapiens) (UniProt Q92630). The assay can be described thus: DYRK2 (h) Millipore kinase activity assay. The conditions noted are these: Compound concentration 1.0 uM.
The target in assay [13] is Serine/threonine-protein kinase D2 (Homo sapiens) (UniProt Q9BZL6). Nature of the assay: PKD2 (h) Millipore kinase activity assay. To be noted: Compound concentration 1.0 uM.
Sequence of Serine/threonine-protein kinase D2 (Homo sapiens) (Q9BZL6 whole entry): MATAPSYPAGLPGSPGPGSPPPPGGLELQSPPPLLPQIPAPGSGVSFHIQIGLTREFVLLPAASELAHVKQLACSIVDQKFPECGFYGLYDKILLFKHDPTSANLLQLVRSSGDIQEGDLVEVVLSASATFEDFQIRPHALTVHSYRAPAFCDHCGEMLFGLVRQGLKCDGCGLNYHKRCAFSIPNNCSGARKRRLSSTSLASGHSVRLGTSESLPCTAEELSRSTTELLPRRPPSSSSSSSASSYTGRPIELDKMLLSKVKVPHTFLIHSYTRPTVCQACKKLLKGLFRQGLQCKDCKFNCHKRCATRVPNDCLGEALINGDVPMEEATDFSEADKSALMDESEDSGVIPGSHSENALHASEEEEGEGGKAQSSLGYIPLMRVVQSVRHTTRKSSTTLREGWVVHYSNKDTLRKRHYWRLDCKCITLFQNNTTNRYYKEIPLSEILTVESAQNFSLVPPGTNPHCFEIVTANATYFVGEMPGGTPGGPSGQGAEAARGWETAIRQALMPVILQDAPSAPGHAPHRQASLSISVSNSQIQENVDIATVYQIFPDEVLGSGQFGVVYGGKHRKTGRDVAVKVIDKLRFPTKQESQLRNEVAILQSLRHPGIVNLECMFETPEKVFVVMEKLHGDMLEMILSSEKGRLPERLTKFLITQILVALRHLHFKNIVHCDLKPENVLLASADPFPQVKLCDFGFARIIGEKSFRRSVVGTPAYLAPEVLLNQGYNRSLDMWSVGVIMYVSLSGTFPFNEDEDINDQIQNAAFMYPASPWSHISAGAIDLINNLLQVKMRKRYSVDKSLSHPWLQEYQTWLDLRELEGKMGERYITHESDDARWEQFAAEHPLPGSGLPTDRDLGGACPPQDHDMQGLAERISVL
In assay [14] the target is D(1A) dopamine receptor (Homo sapiens) (UniProt P21728). To be noted: Compound concentration 10.0 uM.
Assay [15] deals with Phosphatidylinositol 4,5-bisphosphate 3-kinase catalytic subunit alpha isoform (Homo sapiens), P42336 [M1043I]. To be noted: Compound concentration 1000.0 nM.
Sequence of Phosphatidylinositol 4,5-bisphosphate 3-kinase catalytic subunit alpha isoform (Homo sapiens), P42336 [M1043I] (P42336 whole entry M1043I, canonical isoform): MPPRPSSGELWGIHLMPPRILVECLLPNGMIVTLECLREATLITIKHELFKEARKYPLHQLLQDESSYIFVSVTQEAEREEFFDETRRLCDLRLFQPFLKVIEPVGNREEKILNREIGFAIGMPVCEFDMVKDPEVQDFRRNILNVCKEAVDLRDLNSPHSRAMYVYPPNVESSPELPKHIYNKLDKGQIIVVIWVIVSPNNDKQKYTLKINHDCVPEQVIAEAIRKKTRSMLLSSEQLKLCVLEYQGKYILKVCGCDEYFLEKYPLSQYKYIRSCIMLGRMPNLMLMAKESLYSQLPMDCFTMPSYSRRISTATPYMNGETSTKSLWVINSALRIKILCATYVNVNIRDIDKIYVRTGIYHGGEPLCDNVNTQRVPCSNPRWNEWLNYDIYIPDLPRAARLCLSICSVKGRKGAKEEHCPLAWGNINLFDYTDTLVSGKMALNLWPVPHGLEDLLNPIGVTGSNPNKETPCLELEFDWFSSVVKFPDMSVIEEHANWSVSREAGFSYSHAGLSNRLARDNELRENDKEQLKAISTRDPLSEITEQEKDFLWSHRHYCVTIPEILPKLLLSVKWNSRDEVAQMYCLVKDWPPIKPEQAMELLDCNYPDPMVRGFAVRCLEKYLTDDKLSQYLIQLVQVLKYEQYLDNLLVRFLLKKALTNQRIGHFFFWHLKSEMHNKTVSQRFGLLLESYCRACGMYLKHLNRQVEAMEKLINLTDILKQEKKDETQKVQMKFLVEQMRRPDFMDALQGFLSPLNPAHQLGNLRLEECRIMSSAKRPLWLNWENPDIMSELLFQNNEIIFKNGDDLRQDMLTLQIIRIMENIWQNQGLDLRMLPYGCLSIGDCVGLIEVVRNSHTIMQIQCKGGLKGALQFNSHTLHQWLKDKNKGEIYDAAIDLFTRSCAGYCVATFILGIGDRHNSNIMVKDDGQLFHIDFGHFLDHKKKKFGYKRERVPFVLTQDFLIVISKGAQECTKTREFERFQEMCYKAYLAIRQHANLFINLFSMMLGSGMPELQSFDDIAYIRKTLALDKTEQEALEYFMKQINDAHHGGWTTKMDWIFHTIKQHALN
Assay [16] concerns the target Serine/threonine-protein kinase PAK 2 (Homo sapiens) (UniProt Q13177). To be noted: Compound concentration 1000.0 nM.
The target of assay [17] is Serine/threonine-protein kinase MRCK gamma (Homo sapiens) (UniProt Q6DT37). The conditions noted are these: Compound concentration 1000.0 nM.
Assay [18] deals with Ribosomal protein S6 kinase alpha-6 (Homo sapiens) (UniProt Q9UK32). The conditions noted are these: Compound concentration 1000.0 nM.
The target in assay [19] is Mitogen-activated protein kinase kinase kinase 12 (Homo sapiens) (UniProt Q12852). To be noted: Compound concentration 1000.0 nM.
For assay [20], the target named is Serine/threonine-protein kinase Nek7 (Homo sapiens) (UniProt Q8TDX7). To be noted: Compound concentration 1000.0 nM.
Sequence of Serine/threonine-protein kinase Nek7 (Homo sapiens) (Q8TDX7 whole entry, looked up): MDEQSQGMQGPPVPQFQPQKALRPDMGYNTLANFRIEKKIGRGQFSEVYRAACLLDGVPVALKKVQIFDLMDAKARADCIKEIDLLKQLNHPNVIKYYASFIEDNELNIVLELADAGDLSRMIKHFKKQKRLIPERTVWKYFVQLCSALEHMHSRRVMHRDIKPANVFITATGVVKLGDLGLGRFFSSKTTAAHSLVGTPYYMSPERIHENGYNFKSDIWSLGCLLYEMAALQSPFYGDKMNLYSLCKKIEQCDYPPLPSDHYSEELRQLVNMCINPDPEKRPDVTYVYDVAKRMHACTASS
Assay [21] deals with Cyclin-dependent kinase 3 (Homo sapiens) (UniProt Q00526). The conditions noted are these: Compound concentration 1000.0 nM.
Assay [22] has as its target Mitogen-activated protein kinase kinase kinase 3 (Homo sapiens) (UniProt Q99759). To be noted: Compound concentration 1000.0 nM.
The target in assay [23] is Wee1-like protein kinase (Homo sapiens) (UniProt P30291). The conditions noted are these: Compound concentration 1000.0 nM.
Assay [24] addresses Dual serine/threonine and tyrosine protein kinase (Homo sapiens) (UniProt Q6XUX3). To be noted: Compound concentration 1000.0 nM.
In assay [25] the target is Dual specificity mitogen-activated protein kinase kinase 7 (Homo sapiens) (UniProt O14733). To be noted: Compound concentration 1000.0 nM.
The target in assay [26] is Serine/threonine-protein kinase RIO2 (Homo sapiens) (UniProt Q9BVS4). The conditions noted are these: Compound concentration 1000.0 nM.
The target of assay [27] is Ephrin type-B receptor 1 (Homo sapiens) (UniProt P54762). To be noted: Compound concentration 1000.0 nM.
Assay [28] addresses Activin receptor type-1B (Homo sapiens) (UniProt P36896). To be noted: Compound concentration 1000.0 nM.
Assay [29] addresses Phosphatidylinositol 4-phosphate 5-kinase type-1 gamma (Homo sapiens) (UniProt O60331). To be noted: Compound concentration 1000.0 nM.
In assay [30] the target is Serine/threonine-protein kinase DCLK1 (Homo sapiens) (UniProt O15075). The conditions noted are these: Compound concentration 1000.0 nM.
The target in assay [31] is Serine/threonine-protein kinase ULK3 (Homo sapiens) (UniProt Q6PHR2). The conditions noted are these: Compound concentration 1000.0 nM.
Assay [32] addresses Beta-adrenergic receptor kinase 1 (Homo sapiens) (UniProt P25098). The conditions noted are these: Compound concentration 1000.0 nM.
In assay [33] the test system is Epidermal growth factor receptor (Homo sapiens), P00533 [T790M]. The conditions noted are these: Compound concentration 1000.0 nM.
The target of assay [34] is Ribosomal protein S6 kinase alpha-1 (Homo sapiens) (UniProt Q15418). To be noted: Compound concentration 1000.0 nM.
For assay [35], the target named is Protein kinase C epsilon type (Homo sapiens) (UniProt Q02156). The conditions noted are these: Compound concentration 1000.0 nM.
For assay [36], the target named is Testis-specific serine/threonine-protein kinase 1 (Homo sapiens) (UniProt Q9BXA7). The conditions noted are these: Compound concentration 1000.0 nM.
Sequence of Testis-specific serine/threonine-protein kinase 1 (Homo sapiens) (Q9BXA7 whole entry): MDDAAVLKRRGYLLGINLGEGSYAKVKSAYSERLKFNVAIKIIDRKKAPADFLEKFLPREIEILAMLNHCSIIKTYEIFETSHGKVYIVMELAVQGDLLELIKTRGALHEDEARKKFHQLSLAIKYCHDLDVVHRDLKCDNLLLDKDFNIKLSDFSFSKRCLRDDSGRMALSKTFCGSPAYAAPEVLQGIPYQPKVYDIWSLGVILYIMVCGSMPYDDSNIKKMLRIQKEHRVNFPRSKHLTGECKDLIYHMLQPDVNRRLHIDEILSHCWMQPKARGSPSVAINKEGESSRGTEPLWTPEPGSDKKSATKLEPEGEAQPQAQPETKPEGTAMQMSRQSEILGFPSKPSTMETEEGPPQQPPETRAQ
In assay [37] the target is Mitogen-activated protein kinase kinase kinase 7 (Homo sapiens) (UniProt O43318). To be noted: Compound concentration 1000.0 nM.
Assay [38] concerns the target Serine/threonine-protein kinase 10 (Homo sapiens) (UniProt O94804). The conditions noted are these: Compound concentration 1000.0 nM.
Assay [39] has as its target Dual specificity testis-specific protein kinase 1 (Homo sapiens) (UniProt Q15569). To be noted: Compound concentration 1000.0 nM.
Assay [40] deals with Ribosomal protein S6 kinase alpha-4 (Homo sapiens) (UniProt O75676). To be noted: Compound concentration 1000.0 nM.
Assay [41] deals with Serine/threonine-protein kinase Nek1 (Homo sapiens) (UniProt Q96PY6). The conditions noted are these: Compound concentration 1000.0 nM.
In assay [42] the target is Serine/threonine-protein kinase 17B (Homo sapiens) (UniProt O94768). The conditions noted are these: Compound concentration 1000.0 nM.
Sequence of Serine/threonine-protein kinase 17B (Homo sapiens) (O94768 whole entry, canonical isoform): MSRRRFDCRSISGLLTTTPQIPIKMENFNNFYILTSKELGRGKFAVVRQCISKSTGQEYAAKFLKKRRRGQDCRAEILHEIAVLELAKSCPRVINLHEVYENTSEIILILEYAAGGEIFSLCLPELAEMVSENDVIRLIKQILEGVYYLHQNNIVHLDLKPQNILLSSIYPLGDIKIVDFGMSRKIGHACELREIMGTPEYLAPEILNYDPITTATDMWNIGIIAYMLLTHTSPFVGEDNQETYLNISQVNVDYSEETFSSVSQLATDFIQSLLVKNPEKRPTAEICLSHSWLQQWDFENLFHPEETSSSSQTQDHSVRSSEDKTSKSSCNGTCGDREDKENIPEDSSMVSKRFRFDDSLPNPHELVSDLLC
For assay [43], the system named is Phosphatidylinositol 4,5-bisphosphate 3-kinase catalytic subunit alpha isoform (Homo sapiens), P42336 [Q546K]. To be noted: Compound concentration 1000.0 nM.

Sequence of Dual specificity mitogen-activated protein kinase kinase 4 (Mus musculus) (P47809 whole entry): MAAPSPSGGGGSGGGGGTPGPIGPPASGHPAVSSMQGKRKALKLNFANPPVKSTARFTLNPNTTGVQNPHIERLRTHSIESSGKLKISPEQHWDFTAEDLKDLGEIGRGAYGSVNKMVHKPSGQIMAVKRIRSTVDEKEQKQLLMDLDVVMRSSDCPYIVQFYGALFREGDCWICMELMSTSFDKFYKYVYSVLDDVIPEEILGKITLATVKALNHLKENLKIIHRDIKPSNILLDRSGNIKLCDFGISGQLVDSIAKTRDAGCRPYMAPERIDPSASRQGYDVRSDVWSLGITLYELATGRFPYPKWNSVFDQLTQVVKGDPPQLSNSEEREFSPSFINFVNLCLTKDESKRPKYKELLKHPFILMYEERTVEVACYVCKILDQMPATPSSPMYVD
Sequence of Beta-adrenergic receptor kinase 1 (Homo sapiens) (P25098 whole entry): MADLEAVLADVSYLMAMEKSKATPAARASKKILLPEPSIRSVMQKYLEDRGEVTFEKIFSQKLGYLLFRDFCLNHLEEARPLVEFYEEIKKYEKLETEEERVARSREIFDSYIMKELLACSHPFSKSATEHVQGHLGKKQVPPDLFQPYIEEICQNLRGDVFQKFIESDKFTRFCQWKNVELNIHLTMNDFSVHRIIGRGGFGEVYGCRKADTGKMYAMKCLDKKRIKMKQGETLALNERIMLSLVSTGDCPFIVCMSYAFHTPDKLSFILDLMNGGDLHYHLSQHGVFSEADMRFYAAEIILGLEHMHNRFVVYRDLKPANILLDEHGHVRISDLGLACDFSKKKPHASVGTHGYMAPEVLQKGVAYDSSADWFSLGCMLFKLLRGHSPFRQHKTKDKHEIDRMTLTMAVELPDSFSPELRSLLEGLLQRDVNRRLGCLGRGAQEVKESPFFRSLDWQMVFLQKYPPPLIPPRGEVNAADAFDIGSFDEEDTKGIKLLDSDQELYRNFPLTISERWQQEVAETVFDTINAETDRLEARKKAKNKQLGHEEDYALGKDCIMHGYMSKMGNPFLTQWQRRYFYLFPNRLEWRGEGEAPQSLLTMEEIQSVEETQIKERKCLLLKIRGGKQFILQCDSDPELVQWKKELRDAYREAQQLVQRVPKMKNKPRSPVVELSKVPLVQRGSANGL
Sequence of Serine/threonine-protein kinase 10 (Homo sapiens) (O94804 whole entry, looked up): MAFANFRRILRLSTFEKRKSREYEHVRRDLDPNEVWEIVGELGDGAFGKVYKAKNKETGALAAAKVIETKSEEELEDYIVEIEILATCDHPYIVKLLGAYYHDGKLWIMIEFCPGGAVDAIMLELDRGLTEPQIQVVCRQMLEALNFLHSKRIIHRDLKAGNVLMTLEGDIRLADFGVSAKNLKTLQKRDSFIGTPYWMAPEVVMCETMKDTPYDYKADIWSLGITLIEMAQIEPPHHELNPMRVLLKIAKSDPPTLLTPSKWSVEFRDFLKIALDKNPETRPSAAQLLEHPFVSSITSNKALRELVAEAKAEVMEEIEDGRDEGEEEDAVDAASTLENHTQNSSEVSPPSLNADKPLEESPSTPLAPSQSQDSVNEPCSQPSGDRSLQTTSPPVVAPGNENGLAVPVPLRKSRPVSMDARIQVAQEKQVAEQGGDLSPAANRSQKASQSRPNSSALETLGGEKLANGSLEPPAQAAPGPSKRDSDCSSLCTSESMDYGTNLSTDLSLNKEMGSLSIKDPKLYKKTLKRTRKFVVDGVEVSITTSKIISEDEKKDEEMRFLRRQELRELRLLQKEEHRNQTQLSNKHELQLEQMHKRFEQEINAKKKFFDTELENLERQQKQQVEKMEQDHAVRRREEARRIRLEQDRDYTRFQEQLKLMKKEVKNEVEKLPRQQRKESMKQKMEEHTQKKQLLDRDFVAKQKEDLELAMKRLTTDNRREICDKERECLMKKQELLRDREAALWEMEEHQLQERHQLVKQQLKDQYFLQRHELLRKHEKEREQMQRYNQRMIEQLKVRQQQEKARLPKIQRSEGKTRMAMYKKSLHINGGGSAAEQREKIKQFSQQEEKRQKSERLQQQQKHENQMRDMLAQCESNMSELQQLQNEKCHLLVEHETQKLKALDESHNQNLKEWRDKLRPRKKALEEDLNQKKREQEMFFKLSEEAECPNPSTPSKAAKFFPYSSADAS

In the case of `CC1=C(C#N)C(c2ccc3[nH]nc(C)c3c2)C(C#N)=C(C)N1` [BAY-474], the inhibition in assay [1] is -7%; in assay [2], 0%; in the assay listed under Rattus norvegicus, 5%; in [3], -5%; in [4], 6%; in assay [5], 0%. The inhibition in [6] is -10%; in assay [7] it was 3%; in [8], 2%; in assay [9], 7%; in assay [10], 31%; in assay [11] it was 7%. The results for the inhibition in [12], in assay [13] and in assay [14] were -8%, 3% and 3%, respectively.

In the case of `CC1=C(C#N)[C@@H](c2ccc3[nH]nc(C)c3c2)C(C#N)=C(c2ccc(Cl)cc2)N1` [BAY-827], the residual activity was 25.2% in [15]; 100% in assay [16]; 93.6% in assay [17]; 77.4% in assay [18]; 72.2% in [19]; 87.4% in [20]. The residual activity in assay [21] was 100%; in assay [22], 100%; in assay [23], 100%; in assay [24], 100%; in assay [25] it was 92.2%; in assay [26] it was 100%. Further, the residual activity in assay [27] was 100%; in assay [28], 100%; in [29], 99.5%; in assay [30] it was 79.2%; in assay [31] it was 88.3%; in assay [32], 88.1%. For the same compound, the residual activity in assay [33], in [34], in assay [35], in [36], in [37] and in assay [38] was 100% each time. Moreover, the residual activity in assay [39] was 100%; in assay [40], 81.4%; in [41] it was 100%; in [42], 100%; in assay [43], 93.7%.
